In US10167262B2, “Herbicidal substituted 3-arylpyrazoles” (FMC CORPORATION, priority 2014, dated 2019):
Like-named read-outs stand apart in the source and are kept apart here.

Legend:
Assay type in all cases: in vivo
[1] = tested on: chickweed (common chickweed, Stellaria media); test: Test C postemergence greenhouse test, plant response rating 0-100; conditions: Stellaria media, post-emergence
From the text: (§1) At the same time, plants selected from these crop and weed species and also winter barley (Hordeum vulgare), bermudagrass (Cynodon dactylon), downy bromegrass (Bromus tectorum), canarygrass (Phalaris minor), cocklebur (common cocklebur, Xanthium strumarium), woolly cupgrass (Eriochloa villosa), deadnettle (henbit deadnettle, Lamium amplexicaule), green foxtail (Setaria viridis), goosegrass (Eleusine indica), surinam grass (Brachiaria decumbens), windgrass (Apera spica-venti), chickweed (common chickweed, Stellaria media), kochia (Kochia scoparia), and wild oat (Avena fatua), were planted in pots containing Redi-Earth® planting medium (Scotts Company, 14111 Scottslawn Road, Marysville, Ohio 43041) comprising spaghnum peat moss, vermiculite, wetting agent and starter nutrients and treated with postemergence applications of test chemicals formulated in the same manner. Plants ranged in height from 2 to 18 cm (1- to 4-leaf stage) for postemergence treatments. Treated plants and controls were maintained in a greenhouse for 13 to 15 days, after which time all species were compared to controls and visually evaluated. Plant response ratings, summarized in Table C, are based on a scale of 0 to 100 where 0 is no effect and 100 is complete control. A dash (-) response means no test result.

wild oat (Avena fatua) = test: as above; conditions: Avena fatua, post-emergence
From the text: as §1

kochia (Kochia scoparia) = test: as above; conditions: Bassia scoparia, post-emergence
From the text: as §1

[2] = tested on: johnsongrass (Sorghum halepense); test: Test C pre-/postemergence greenhouse test, plant response rating 0-100; conditions: Sorghum halepense; for pest or weed control at 62 g/ha: 62 g ai/ha; for pest or weed control at 125 g/ha: 125 g ai/ha; for pest or weed control at 250 g/ha: 250 g ai/ha; for pest or weed control at 500 g/ha: 500 g ai/ha
Procedure, shortened: (§2)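 After treatment, pots stay in the greenhouse 13–15 days before each species is compared with untreated controls and given a 0–100 visual score. Preemergence seeds are in loam blended with sand; postemergence plants, 1–4 leaves, are in peat-based medium.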

[3] = tested on: lambsquarters (Chenopodium album); test: as above; conditions: Chenopodium album; for pest or weed control at 62 g/ha: 62 g ai/ha; for pest or weed control at 125 g/ha: 125 g ai/ha; for pest or weed control at 250 g/ha: 250 g ai/ha; for pest or weed control at 500 g/ha: 500 g ai/ha
Procedure, shortened: as §2

[4] = tested on: pigweed (Amaranthus retroflexus); test: as above; conditions: Amaranthus retroflexus; for pest or weed control at 62 g/ha: 62 g ai/ha; for pest or weed control at 125 g/ha: 125 g ai/ha; for pest or weed control at 250 g/ha: 250 g ai/ha; for pest or weed control at 500 g/ha: 500 g ai/ha
Procedure, shortened: as §2

soybean (Glycine max) = test: as above; conditions: Glycine max; for plant injury at 62 g/ha: 62 g ai/ha; for plant injury at 125 g/ha: 125 g ai/ha; for plant injury at 250 g/ha: 250 g ai/ha; for plant injury at 500 g/ha: 500 g ai/ha
Procedure, shortened: as §2

[5] = tested on: Italian ryegrass (Lolium multiflorum); test: as above; conditions: Lolium multiflorum; for pest or weed control at 62 g/ha: 62 g ai/ha; for pest or weed control at 125 g/ha: 125 g ai/ha; for pest or weed control at 250 g/ha: 250 g ai/ha; for pest or weed control at 500 g/ha: 500 g ai/ha
Procedure, shortened: as §2

[6] = tested on: yellow nutsedge (Cyperus esculentus); test: as above; conditions: Cyperus; for pest or weed control at 62 g/ha: 62 g ai/ha; for pest or weed control at 125 g/ha: 125 g ai/ha; for pest or weed control at 250 g/ha: 250 g ai/ha; for pest or weed control at 500 g/ha: 500 g ai/ha
Procedure, shortened: as §2

[7] = tested on: winter wheat (Triticum aestivum); test: as above; conditions: Triticum aestivum; for plant injury at 62 g/ha: 62 g ai/ha; for plant injury at 125 g/ha: 125 g ai/ha; for plant injury at 250 g/ha: 250 g ai/ha; for plant injury at 500 g/ha: 500 g ai/ha
Procedure, shortened: as §2

[8] = tested on: giant foxtail (Setaria faberii); test: as above; conditions: Setaria faberi; for pest or weed control at 62 g/ha: 62 g ai/ha; for pest or weed control at 125 g/ha: 125 g ai/ha; for pest or weed control at 250 g/ha: 250 g ai/ha; for pest or weed control at 500 g/ha: 500 g ai/ha
Procedure, shortened: as §2

corn (Zea mays) = test: as above; conditions: Zea mays; for Corn plant response rating (crop injury, 0 = no effect, 100 = complete kill) at 250 g/ha: 250 g ai/ha; for Corn plant response rating (crop injury, 0 = no effect, 100 = complete kill) at 500 g/ha: 500 g ai/ha
Procedure, shortened: as §2

[9] = tested on: galium (catchweed bedstraw, Galium aparine); test: as above; conditions: Galium; for pest or weed control at 62 g/ha: 62 g ai/ha; for pest or weed control at 125 g/ha: 125 g ai/ha; for pest or weed control at 250 g/ha: 250 g ai/ha; for pest or weed control at 500 g/ha: 500 g ai/ha
Procedure, shortened: as §2

[10] = post-emergence, Postemergence, read-out: Plant response rating (0 to 100), Johnsongrass
[11] = post-emergence, Postemergence, scale 0 to 100
[12] = pre-emergence, Preemergence, read-out: Plant response rating, Johnsongrass
[13] = post-emergence, Postemergence, read-out: Plant response rating (0 to 100), Lambsquarters
[14] = pre-emergence, Preemergence, read-out: Plant response rating, Lambsquarters
[15] = post-emergence, Postemergence, read-out: Plant response rating (0 to 100), Pigweed
[16] = pre-emergence, Preemergence, read-out: Plant response rating, Pigweed
[17] = post-emergence, Postemergence, read-out: Plant response rating (0 to 100), Soybean
[18] = pre-emergence, Preemergence, read-out: Plant response rating, Soybean
[19] = post-emergence, Postemergence, read-out: Plant response rating (0 to 100), Ryegrass, Italian
[20] = pre-emergence, Preemergence, read-out: Plant response rating, Ryegrass, Italian
[21] = post-emergence, Postemergence, read-out: Plant response rating (0 to 100), Nutsedge, Yellow
[22] = pre-emergence, Preemergence, read-out: Plant response rating, Nutsedge, Yellow
[23] = post-emergence, Postemergence, read-out: Plant response rating (0 to 100), Wheat
[24] = pre-emergence, Preemergence, read-out: Plant response rating, Wheat
[25] = post-emergence, Postemergence, read-out: Plant response rating (0 to 100), Foxtail, Giant
[26] = pre-emergence, Preemergence, read-out: Plant response rating, Foxtail, Giant
[27] = post-emergence, Postemergence, read-out: Plant response rating (0 to 100), Galium
[28] = pre-emergence, Preemergence, read-out: Plant response rating, Galium

COC(OC)(c1ccccc1)c1c[nH]nc1-c1cc(Cl)cc(Cl)c1 [Compound 13, 3-(3,5-dichlorophenyl)-4-(dimethoxyphenylmethyl)-1H-pyrazole]
pest or weed control at 62 g/ha ([1]; 62 g ai/ha): 100%
pest or weed control at 125 g/ha ([1]; 125 g ai/ha): 85%
pest or weed control at 250 g/ha ([1]; 250 g ai/ha, scale 0 to 100): 100%
pest or weed control at 500 g/ha ([1]; 500 g ai/ha, scale 0 to 100): 100%
pest or weed control at 62 g/ha (wild oat (Avena fatua); 62 g ai/ha): 0%
pest or weed control at 125 g/ha (wild oat (Avena fatua); 125 g ai/ha): 0%
pest or weed control at 250 g/ha (wild oat (Avena fatua); 250 g ai/ha, scale 0 to 100): 0%
pest or weed control at 500 g/ha (wild oat (Avena fatua); 500 g ai/ha, scale 0 to 100): 5%
pest or weed control at 62 g/ha (kochia (Kochia scoparia); 62 g ai/ha): 85%
pest or weed control at 125 g/ha (kochia (Kochia scoparia); 125 g ai/ha): 80%
pest or weed control at 250 g/ha (kochia (Kochia scoparia); 250 g ai/ha, scale 0 to 100): 85%
pest or weed control at 500 g/ha (kochia (Kochia scoparia); 500 g ai/ha, scale 0 to 100): 90%
pest or weed control at 62 g/ha [2, 10]: 0%
pest or weed control at 125 g/ha [2, 10]: 0%
pest or weed control at 250 g/ha [2, 11]: 0%
pest or weed control at 500 g/ha [2, 11]: 0%
pest or weed control at 62 g/ha [2, 12]: 0%
pest or weed control at 125 g/ha [2, 12]: 0%
pest or weed control at 250 g/ha ([2]; pre-emergence, Preemergence): 0%
pest or weed control at 500 g/ha ([2]; pre-emergence, Preemergence): 0%
pest or weed control at 62 g/ha [3, 13]: 75%
pest or weed control at 125 g/ha [3, 13]: 80%
pest or weed control at 250 g/ha [3, 11]: 98%
pest or weed control at 500 g/ha [3, 11]: 98%
pest or weed control at 62 g/ha [3, 14]: 100%
pest or weed control at 125 g/ha [3, 14]: 100%
pest or weed control at 250 g/ha ([3]; pre-emergence, Preemergence): 100%
pest or weed control at 500 g/ha ([3]; pre-emergence, Preemergence): 100%
pest or weed control at 62 g/ha [4, 15]: 75%
pest or weed control at 125 g/ha [4, 15]: 100%
pest or weed control at 250 g/ha [4, 11]: 100%
pest or weed control at 500 g/ha [4, 11]: 100%
pest or weed control at 62 g/ha [4, 16]: 90%
pest or weed control at 125 g/ha [4, 16]: 100%
pest or weed control at 250 g/ha ([4]; pre-emergence, Preemergence): 100%
pest or weed control at 500 g/ha ([4]; pre-emergence, Preemergence): 100%
plant injury at 62 g/ha (soybean (Glycine max); [17]): 0%
plant injury at 125 g/ha (soybean (Glycine max); [17]): 0%
plant injury at 250 g/ha (soybean (Glycine max); [11]): 0%
plant injury at 500 g/ha (soybean (Glycine max); [11]): 10%
plant injury at 62 g/ha (soybean (Glycine max); [18]): 0%
plant injury at 125 g/ha (soybean (Glycine max); [18]): 0%
plant injury at 250 g/ha (soybean (Glycine max); pre-emergence, Preemergence): 75%
plant injury at 500 g/ha (soybean (Glycine max); pre-emergence, Preemergence): 60%
pest or weed control at 62 g/ha [5, 19]: 0%
pest or weed control at 125 g/ha [5, 19]: 0%
pest or weed control at 250 g/ha [5, 11]: 0%
pest or weed control at 500 g/ha [5, 11]: 0%
pest or weed control at 62 g/ha [5, 20]: 0%
pest or weed control at 125 g/ha [5, 20]: 0%
pest or weed control at 250 g/ha ([5]; pre-emergence, Preemergence): 0%
pest or weed control at 500 g/ha ([5]; pre-emergence, Preemergence): 0%
pest or weed control at 62 g/ha [6, 21]: 0%
pest or weed control at 125 g/ha [6, 21]: 0%
pest or weed control at 250 g/ha [6, 11]: 0%
pest or weed control at 500 g/ha [6, 11]: 0%
pest or weed control at 62 g/ha [6, 22]: 0%
pest or weed control at 125 g/ha [6, 22]: 0%
pest or weed control at 250 g/ha ([6]; pre-emergence, Preemergence): 0%
pest or weed control at 500 g/ha ([6]; pre-emergence, Preemergence): 0%
plant injury at 62 g/ha [7, 23]: 0%
plant injury at 125 g/ha [7, 23]: 0%
plant injury at 250 g/ha [7, 11]: 0%
plant injury at 500 g/ha [7, 11]: 0%
plant injury at 62 g/ha [7, 24]: 0%
plant injury at 125 g/ha [7, 24]: 0%
plant injury at 250 g/ha ([7]; pre-emergence, Preemergence): 0%
plant injury at 500 g/ha ([7]; pre-emergence, Preemergence): 0%
pest or weed control at 62 g/ha [8, 25]: 0%
pest or weed control at 125 g/ha [8, 25]: 0%
pest or weed control at 250 g/ha [8, 11]: 0%
pest or weed control at 500 g/ha [8, 11]: 0%
pest or weed control at 62 g/ha [8, 26]: 0%
pest or weed control at 125 g/ha [8, 26]: 0%
pest or weed control at 250 g/ha ([8]; pre-emergence, Preemergence): 0%
pest or weed control at 500 g/ha ([8]; pre-emergence, Preemergence): 0%
plant injury at 62 g/ha (corn (Zea mays); post-emergence, Postemergence, 62 g ai/ha): 0%
plant injury at 125 g/ha (corn (Zea mays); post-emergence, Postemergence, 125 g ai/ha): 0%
Corn plant response rating (crop injury, 0 = no effect, 100 = complete kill) at 250 g/ha (corn (Zea mays); [11]): 0%
Corn plant response rating (crop injury, 0 = no effect, 100 = complete kill) at 500 g/ha (corn (Zea mays); [11]): 0%
Corn plant response rating (crop injury, 0 = no effect, 100 = complete kill) at 62 g/ha (corn (Zea mays); pre-emergence, Preemergence, 62 g ai/ha): 0%
Corn plant response rating (crop injury, 0 = no effect, 100 = complete kill) at 125 g/ha (corn (Zea mays); pre-emergence, Preemergence, 125 g ai/ha): 0%
Corn plant response rating (crop injury, 0 = no effect, 100 = complete kill) at 250 g/ha (corn (Zea mays); pre-emergence, Preemergence): 0%
Corn plant response rating (crop injury, 0 = no effect, 100 = complete kill) at 500 g/ha (corn (Zea mays); pre-emergence, Preemergence): 0%
pest or weed control at 62 g/ha [9, 27]: 0%
pest or weed control at 125 g/ha [9, 27]: 0%
pest or weed control at 250 g/ha [9, 11]: 40%
pest or weed control at 500 g/ha [9, 11]: 10%
pest or weed control at 62 g/ha [9, 28]: 60%
pest or weed control at 125 g/ha [9, 28]: 0%
pest or weed control at 250 g/ha ([9]; pre-emergence, Preemergence): 30%
pest or weed control at 500 g/ha ([9]; pre-emergence, Preemergence): 0%
